Structures are written as SMILES. Where only a bound is given, the exact number is not on record here.

One assay has as its system HBV viral load production from HepAD38 cells. Description: Viral production from HepAD38 cells: viral load in supernatant by qPCR of the HBV core sequence. The format is cell-based. To be noted: 5 days incubation, qPCR of supernatant HBV DNA vs DMSO control, read-out: viral load lowering EC50 (Activity). The method in brief: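 HepAD38 cells seeded at 50,000/well in tetracycline-free medium with 2% FBS, treated with compounds (final top concentration 10 μM) for 5 days at 37 °C. Supernatant HBV DNA quantified by TaqMan qPCR of core sequence against HBV DNA standards, relative to DMSO controls; EC50 by four-parameter logistic fit.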
Regarding `CN1C(C(=O)Nc2ccc(F)c(Cl)c2)CC(C(=O)NC2CCN(C(=O)C3CC3)CC2)NS1(=O)=O` (single isomer, unassigned) [Compound 854-ISOMER-B, N3-(3-chloro-4-fluoro-phenyl)-N5-[1-(cyclopropanecarbonyl)-4-piperidyl]-2-methyl-1,1-dioxo-1,2,6-thiadiazinane-3,5-dicarboxamide], the EC50 lay in the range of 100 to 10000 nM.

As to `CC(C)OC(=O)N1CCC(NC(=O)C2CC(C(=O)Nc3ccc(F)c(Cl)c3)N(C)S(=O)(=O)N2)CC1` (single isomer, unassigned) [Compound 766-ISOMER-B, isopropyl 4-[[5-[(3-chloro-4-fluoro-phenyl)carbamoyl]-6-methyl-1,1-dioxo-1,2,6-thiadiazinane-3-carbonyl]amino]piperidine-1-carboxylate], the EC50 is 50 to 100 nM.

Still in this assay, the particulars now being: Hepatitis B virus, HePAD38, 120 h, 5 days incubation, qPCR of supernatant HBV DNA vs DMSO control, read-out: viral load lowering EC50 (Activity).
As for `CN1C(C(=O)Nc2ccc(F)c(Cl)c2)CC(C(=O)NC2CCN(c3ccnc(Cl)c3)C2)NS1(=O)=O` (stereo not drawn) [Compound 1055], the EC50 was under 50 nM.

In the case of `Cc1cn(-c2ccccc2)nc1CNC(=O)C1CC(C(=O)Nc2ccc(F)c(C#N)c2)N(C)S(=O)(=O)N1` (stereo not drawn) [Compound 1134], the EC50 is under 50 nM.

With `CN1C(C(=O)Nc2ccc(F)c(Cl)c2)CC(C(=O)NCc2cnc(-c3ccc(F)cc3)s2)NS1(=O)=O` (stereo not drawn) [Compound 916], the EC50 was under 50 nM.

As for `CN1C(C(=O)Nc2ccc(F)c(Cl)c2)CC(C(=O)NCc2nc(C(F)(F)F)cs2)NS1(=O)=O` (single isomer, unassigned) [1202-ISOMER-A, N3-(3-chloro-4-fluoro-phenyl)-2-methyl-1,1-dioxo-N5-[[4-(trifluoromethyl)thiazol-2-yl]methyl]-1,2,6-thiadiazinane-3,5-dicarboxamide], the EC50 was in the range of 100 to 10000 nM.

For `Cc1noc(CNC(=O)C2CC(C(=O)Nc3ccc(F)c(Cl)c3)N(C)S(=O)(=O)N2)n1` (stereo not drawn) [Compound 685], the EC50 fell in the range of 100 to 10000 nM.

In the case of `CN1C(C(=O)Nc2ccc(F)c(Cl)c2)CC(C(=O)NC(c2ccccc2)c2ccccc2)NS1(=O)=O` (stereo not drawn) [Compound 1014], the EC50 was under 50 nM.

As for `CN1C(C(=O)Nc2ccc(F)c(Cl)c2)CC(C(=O)NCc2cnc(-c3ccccc3)s2)NS1(=O)=O` (single isomer, unassigned) [Compound 691-ISOMER-A, N3-(3-chloro-4-fluoro-phenyl)-2-methyl-1,1-dioxo-N5-[(2-phenylthiazol-5-yl)methyl]-1,2,6-thiadiazinane-3,5-dicarboxamide], the EC50 was 100 to 10000 nM.

Turning to `CN1C(C(=O)Nc2ccc(F)c(Cl)c2)CC(C(=O)N[C@@H]2CCN(c3ccnc(Cl)c3)C2)NS1(=O)=O` (single isomer, unassigned) [1055-R-ISOMER-A], the EC50 is 100 to 10000 nM.

Consider `Cc1cn(-c2ccccc2)nc1CNC(=O)C1CC(C(=O)Nc2ccnc(Cl)c2)N(C)S(=O)(=O)N1` (stereo not drawn) [Compound 1135], for which the EC50 is under 50 nM.

Turning to `CN1C(C(=O)Nc2ccc(F)c(Cl)c2)CC(C(=O)NCCCc2ccccc2)NS1(=O)=O` (stereo not drawn) [Compound 726], the EC50 is 50 to 100 nM.

Turning to `CN1C(C(=O)Nc2ccc(F)c(Cl)c2)CC(C(=O)NCc2cnc(C3=CCC(C)(C)C3)s2)NS1(=O)=O` (stereo not drawn) [Compound 1205], the EC50 lay within 100 to 10000 nM.

As for `CN1C(C(=O)Nc2ccc(F)c(Cl)c2)CC(C(=O)NCc2cn(-c3ccccc3)cn2)NS1(=O)=O` (single isomer, unassigned) [1145-ISOMER-A, N3-(3-chloro-4-fluoro-phenyl)-2-methyl-1,1-dioxo-N5-[(1-phenylimidazol-4-yl)methyl]-1,2,6-thiadiazinane-3,5-dicarboxamide], the EC50 is under 50 nM.

As for `COc1ccccc1CNC(=O)C1CC(C(=O)Nc2ccc(F)c(Cl)c2)N(C)S(=O)(=O)N1` (stereo not drawn) [Compound 822], the EC50 is under 50 nM.

As for `CN1C(C(=O)Nc2ccc(F)c(Cl)c2)CC(C(=O)NC2CCN(S(=O)(=O)C(F)(F)F)CC2)NS1(=O)=O` (stereo not drawn) [Compound 856], the EC50 lay in the range of 100 to 10000 nM.

As for `Cc1nc(CNC(=O)C2CC(C(=O)Nc3ccc(F)c(Cl)c3)N(C)S(=O)(=O)N2)sc1-c1ccccc1` (stereo not drawn) [Compound 1070], the EC50 was under 50 nM.

For `CCN1C(C(=O)Nc2ccc(F)c(Cl)c2)CC(C(=O)NC2CCN(C(=O)OC)CC2)NS1(=O)=O` (single isomer, unassigned) [Compound 890-ISOMER-A, methyl 4-[[5-[(3-chloro-4-fluoro-phenyl)carbamoyl]-6-ethyl-1,1-dioxo-1,2,6-thiadiazinane-3-carbonyl]amino]piperidine-1-carboxylate], the EC50 was under 50 nM.

The EC50 is the midpoint of the concentration-response curve.

These data come from patent US20230075856A1, “CYCLIC SULFAMIDE COMPOUNDS FOR TREATMENT OF HBV” (Assembly Biosciences, Inc., priority 2018, published 2023).
